Values of other authors as cited in patent publication US20060057183A1, “Indwelling stent” (priority 2003, published 2006).

Tested on: human vascular cells
Conditions: Mohacsi et al., J Heart Lung Transplant 1997

C=CC[C@@H]1/C=C(\C)C[C@H](C)C[C@H](OC)[C@H]2O[C@@](O)(C(=O)C(=O)N3CCCC[C@H]3C(=O)O[C@H](/C(C)=C/[C@@H]3CC[C@@H](O)[C@H](OC)C3)[C@H](C)[C@@H](O)CC1=O)[C@H](C)C[C@@H]2OC [tacrolimus (FK506), Tacrolimus]
antiproliferative effects on human vascular cells: antiproliferative effects
